# Entries after “also recorded” stand apart in the source; their conditions may differ.
# Assays:
# P-glycoprotein (P-gp) [1] = system: T1, P-glycoprotein (P-gp); experiment: Loganin transport across Caco-2 monolayers with P-gp inhibitor verapamil; assay type: in vitro ADME, human; conditions: human, Caco-2, pH 7.4; with verapamil 100 μM, loganin 20 μM, n = 3
# T1 construct: endogenous in cells; host or cells: Caco-2 monolayers
# Description: (§1) Before the experiments, the human intestinal Caco-2 cell monolayers were washed twice with HBSS medium (pH 7.4). The transport experiments were conducted by adding the drug solutions (containing 1% DMSO) to either the apical (AP, 0.5 mL) or basolateral side (BL, 1.0 mL), while the receiving chamber contained the corresponding volume of blank HBSS medium. The monolayers were incubated at 37°C, and 50 μL samples were taken at 15, 30, 45, 60, 90, and 120 min from the acceptor compartment, and the volume was then immediately replaced with50 μL of fresh, prewarmed blank HBSS. TEER measurements for assessing the membrane integrity took place before and after the experiment. The samples were frozen immediately and stored below −80°C before analysis.
# (§2) Several efflux and influx transporters were investigated for their effects on the transport flux of loganin. One hundred μM verapamil was added to evaluate the selectivity of P-glycoprotein (P-gp); inhibiting the efflux by multidrug resistance-associated proteins (MRPs) was undertaken by adding 100μM MK571, 50μM benzbromarone, and 200μM indomethacin [21–23]; 25 μM apigenin was used to investigate breast cancer resistance protein (BCRP); 50 μM sodium vanadate and cimetidine were used as Na^+/K^+pump and […] inhibitors.
# (§3) UPLC-MS/MS data acquisition was performed using Analyst 1.5.2 and MultiQuant 2.1.1 software (Applied Biosystems). The data were analyzed by SPSS Software. The apparent permeability coefficient (Papp) was calculated according to Papp = (dQ/dt)/(A·C0)
# (§4) where dQ/dt is the steady-state flux (nmol/s), A is the surface area of the insert (cm^2); C0 is the initial concentration. The efflux ratio (P) was determined by calculating the ratio of PappBA versus PappAB as in(1) P=PappBA/PappAB Statistical analysis was performed with analysis of variance (ANOVA) after confirmation of normal distributions.
# P-glycoprotein (P-gp) [2] = biological target: T2, P-glycoprotein (P-gp) (Homo sapiens, UniProt P08183); experiment: as above; assay type: in vitro ADME
# T2 construct: endogenous in cells; host or cells: Caco-2 monolayers
# Description: as §1, §2, §3, §4
# [3] = stated as well known, no reference given; cited from earlier work
# BCRP [4] = biological target: T3, BCRP (Homo sapiens, UniProt Q9UNQ0); experiment: Loganin transport across Caco-2 monolayers with BCRP inhibitor apigenin; assay type: in vitro ADME; set-up: key to Modulatory effect: +: Indicates that the inhibitor has significant effect on the loganin transport
# T3 construct: endogenous in cells; host or cells: Caco-2 monolayers
# T3 sequence (Q9UNQ0 1-655): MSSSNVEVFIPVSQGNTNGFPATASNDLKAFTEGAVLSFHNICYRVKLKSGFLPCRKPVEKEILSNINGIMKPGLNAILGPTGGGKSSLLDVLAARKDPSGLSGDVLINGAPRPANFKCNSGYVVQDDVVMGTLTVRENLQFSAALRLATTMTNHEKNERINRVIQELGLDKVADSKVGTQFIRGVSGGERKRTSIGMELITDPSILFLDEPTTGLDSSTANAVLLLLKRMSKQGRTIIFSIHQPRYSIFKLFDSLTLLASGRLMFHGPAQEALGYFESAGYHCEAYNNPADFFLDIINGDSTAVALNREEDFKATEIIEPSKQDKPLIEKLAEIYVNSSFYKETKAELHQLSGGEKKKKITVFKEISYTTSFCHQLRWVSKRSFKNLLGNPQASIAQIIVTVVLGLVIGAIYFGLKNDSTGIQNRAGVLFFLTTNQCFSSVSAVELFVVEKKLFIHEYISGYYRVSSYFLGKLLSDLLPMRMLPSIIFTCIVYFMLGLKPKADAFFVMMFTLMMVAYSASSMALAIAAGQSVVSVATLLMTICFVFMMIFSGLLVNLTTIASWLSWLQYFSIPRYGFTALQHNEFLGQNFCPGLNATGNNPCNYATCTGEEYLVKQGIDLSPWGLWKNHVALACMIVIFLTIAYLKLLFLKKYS
# Description: as §1, §2, §3, §4
# BCRP [5] = system: T4, BCRP; experiment: as above; assay type: in vitro ADME, human; set-up: key to Modulatory effect: +: Indicates that the inhibitor has significant effect on the loganin transport; conditions: human, Caco-2, pH 7.4; with apigenin 25 μM, loganin 20 μM, n = 3
# T4 construct: endogenous in cells; host or cells: Caco-2 monolayers
# Description: as §1, §2, §3, §4
# [6] = set-up: method as in PMID 35540372; conditions: rats; cited from earlier work
# Na^+/K^+pump = experiment: Loganin transport across Caco-2 monolayers with Na+/K+ pump inhibitor sodium vanadate; assay type: in vitro ADME, human; conditions: pretreatment with 50 μM sodium vanadate
# Description: as §1, §2, §3, §4
# Na+/K+ pump = experiment: as above; assay type: in vitro ADME, human; conditions: human
# Description: as §1, §2, §3, §4
# MRP2, MRP3 = experiment: Loganin transport across Caco-2 monolayers with MRP2/MRP3 inhibitor benzbromarone; assay type: in vitro ADME, human; set-up: key to Modulatory effect: +: Indicates that the inhibitor has significant effect on the loganin transport
# Description: as §1, §2, §3, §4
# [7] = system: human intestinal Caco-2 cells; experiment: MTT cytotoxicity (cell viability) assay; assay type: cell-based; conditions: MTT; for Survival Rates: n = 5, mean ± SD
# Description: Cell viability was assessed using an MTT assay. Briefly, 0.1 mL of human intestinal Caco-2 cells was seeded onto 96-well plates at a density of 1×10^5 cells per well in a 96-well plate. The cells were grown in an atmosphere with 5% CO2 and 95% relative humidity over approximately 48 h. Subsequently, the culture medium was replaced with HBSS containing different concentrations of loganin (0.1-200 μM); the final concentration of dimethyl sulfoxide (DMSO) in HBSS remained at <1%. The negative control was HBSS containing 1% DMSO. […] Then, 0.2 mL of 0.5mg/mL MTT solution was added to each well and incubated for 4 h in dark. The medium was then removed, the MTT-formazan crystals were solubilized by incubating with 150 μL of DMSO with gentle shaking for 10 min, and absorbance was determined at 490 nm in a Multiskan Spectrum microplate reader (Thermo Labsystems, MA, USA). In each MTT assay, every sample was tested in five replicates and the viability of the nontreated control cells was arbitrarily defined as 100%.
# [8] = Caco-2, pH 7.4, with sodium vanadate 50 μM, loganin 20 μM, n = 3
# [9] = human, Caco-2, pH 7.4, with benzbromarone 50 μM, loganin 20 μM, n = 3
# T2 sequence (P08183 whole entry): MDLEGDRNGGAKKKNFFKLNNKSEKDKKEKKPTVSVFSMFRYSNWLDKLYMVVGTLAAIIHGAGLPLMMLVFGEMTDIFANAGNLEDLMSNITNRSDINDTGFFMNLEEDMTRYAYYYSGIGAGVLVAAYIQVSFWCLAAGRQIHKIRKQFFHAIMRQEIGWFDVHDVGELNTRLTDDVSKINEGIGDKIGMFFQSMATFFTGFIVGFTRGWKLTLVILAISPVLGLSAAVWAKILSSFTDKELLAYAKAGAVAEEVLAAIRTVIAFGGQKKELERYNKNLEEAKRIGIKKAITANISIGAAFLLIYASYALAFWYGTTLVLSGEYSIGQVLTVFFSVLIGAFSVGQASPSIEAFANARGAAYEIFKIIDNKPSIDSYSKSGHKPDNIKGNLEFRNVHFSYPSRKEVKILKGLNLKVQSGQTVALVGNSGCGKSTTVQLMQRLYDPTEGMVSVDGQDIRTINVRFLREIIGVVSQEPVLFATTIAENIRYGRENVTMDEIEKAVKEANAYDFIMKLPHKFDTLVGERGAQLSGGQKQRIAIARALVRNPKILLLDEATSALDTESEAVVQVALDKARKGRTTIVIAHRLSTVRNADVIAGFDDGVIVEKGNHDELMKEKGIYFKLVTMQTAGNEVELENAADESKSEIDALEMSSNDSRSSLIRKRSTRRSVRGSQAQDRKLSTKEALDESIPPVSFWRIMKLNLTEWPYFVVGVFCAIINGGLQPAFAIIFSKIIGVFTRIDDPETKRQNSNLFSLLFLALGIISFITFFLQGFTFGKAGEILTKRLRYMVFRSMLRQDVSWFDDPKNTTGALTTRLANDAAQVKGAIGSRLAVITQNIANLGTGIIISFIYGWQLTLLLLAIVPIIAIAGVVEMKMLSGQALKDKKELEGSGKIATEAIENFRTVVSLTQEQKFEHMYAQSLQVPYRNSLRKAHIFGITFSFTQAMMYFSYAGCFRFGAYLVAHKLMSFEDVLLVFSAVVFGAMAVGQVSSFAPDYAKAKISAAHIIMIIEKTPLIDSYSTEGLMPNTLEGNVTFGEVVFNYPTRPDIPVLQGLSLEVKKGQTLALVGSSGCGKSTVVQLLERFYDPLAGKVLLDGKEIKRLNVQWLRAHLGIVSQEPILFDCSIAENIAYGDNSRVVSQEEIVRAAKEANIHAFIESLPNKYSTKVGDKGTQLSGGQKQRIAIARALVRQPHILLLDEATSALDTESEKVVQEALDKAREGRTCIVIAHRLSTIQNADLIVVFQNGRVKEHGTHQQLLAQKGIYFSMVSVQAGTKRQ
smiles,measurement,setting,value
"COC(=O)C1=CO[C@@H](O[C@@H]2O[C@H](CO)[C@@H](O)[C@H](O)[C@H]2O)[C@@H]2[C@@H](C)[C@@H](O)C[C@H]12 [loganin, Loganin]","Papp B→A at 120 min, 20 μM",P-glycoprotein (P-gp) [1],9.3 ± 1.7 ×10⁻⁶ cm/s
same,"efflux ratio at 120 min, 20 μM","P-glycoprotein (P-gp) [2]; human, Caco-2, pH 7.4, with verapamil 100 μM, read-out: P (efflux ratio PappBA/PappAB)",0.84
same,Substrate of P-gp (in words),P-glycoprotein (P-gp) [2]; judged from verapamil vs control,not the substrate; also recorded: not a substrate
same,PappAB difference between verapamil and control groups (in words),P-glycoprotein (P-gp) [2]; verapamil 100 μM,insignificant
same,PappAB,"P-glycoprotein (P-gp) [2]; with verapamil 100 μM, loganin 20 μM, n = 3",11.1±1.7 ×10^−6cm/s
same,Water solubility (in words),[3],low
same,efflux ratio at 120 min,"BCRP [4]; human, Caco-2, pH 7.4, with apigenin 25 μM, read-out: P (efflux ratio PappBA/PappAB)",0.41
same,Substrate of BCRP (in words),BCRP [4]; judged from apigenin vs control,substrate
same,Modulatory effect,BCRP [4]; with apigenin 25 μM,+
same,"Papp A→B at 120 min, 20 μM",BCRP [5],30.1 ± 6.2 ×10⁻⁶ cm/s
same,"Papp B→A at 120 min, 20 μM",BCRP [5],12.3 ± 2.5 ×10⁻⁶ cm/s
same,Oral bioavailability (in words),[6],low
same,Effect on Papp values (in words),Na^+/K^+pump,no significant effects
same,"efflux ratio at 120 min, 20 μM","Na+/K+ pump; Caco-2, pH 7.4, with sodium vanadate 50 μM, read-out: P (efflux ratio PappBA/PappAB)",0.73
same,"Papp A→B at 120 min, 20 μM",Na+/K+ pump; [8],12.3 ± 0.7 ×10⁻⁶ cm/s
same,"Papp B→A at 120 min, 20 μM",Na+/K+ pump; [8],9 ± 1.1 ×10⁻⁶ cm/s
same,"efflux ratio at 120 min, 20 μM","MRP2, MRP3; human, Caco-2, pH 7.4, with benzbromarone 50 μM, read-out: P (efflux ratio PappBA/PappAB)",0.23
same,"Papp A→B at 120 min, 20 μM","MRP2, MRP3; [9]",29.5 ± 5.9 ×10⁻⁶ cm/s
same,"Papp B→A at 120 min, 20 μM","MRP2, MRP3; [9]",6.7 ± 0.9 ×10⁻⁶ cm/s
same,Modulatory effect,"MRP2, MRP3; with benzbromarone 50 μM",+
same,Survival Rates,[7]; loganin 0.1 μM,107.66±10.9%
same,Survival Rates,[7]; loganin 1 μM,108.73±25.4%
same,Survival Rates,[7]; loganin 5 μM,106.57±8.3%
same,Survival Rates,[7]; loganin 10 μM,106.22±10.9%
same,Survival Rates,[7]; loganin 50 μM,103.45±3.3%
same,Survival Rates,[7]; loganin 100 μM,101.45±6.5%
same,Inhibition of Caco-2 cells,[7]; loganin 200 μM,4.67%
